Here are results for 53 compounds from patent US20250214977A1, “STAT6 INHIBITORS AND USES THEREOF” (Kymera Therapeutics, Inc., priority 2024, published 2025).

Structures are written as SMILES.

This assay has as its system Phosphorylation of STAT6 in human A549 cells. In words: Phosphorylated STAT6 (pSTAT6) flow cytometry assay in human A549 cells. In kind it is cell-based. The conditions noted are these: read-out: STAT6 IL4 pSTAT6 assay in A549 cells: Average IC50. An excerpt: Example 3. Phosphorylated STAT6 (pSTAT6) Flow Cytometry Assay in Human A549 Cells
Phosphorylation of STAT6 in human A549 cells was quantitatively measured using flow cytometry technology.
A general note: Flow cytometry measures light scatter and fluorescence of single cells or particles in a stream.

A word on the IC50: it is the concentration at which inhibition is half-maximal. For the compound `COc1ccccc1-c1cc(C2=CCCN(C(=O)CCn3ccnn3)C2)c(F)c2[nH]c(C(=O)N3CCN(c4ccc(C(F)(F)F)cc4F)CC3)cc12` [Example I-932], the 50% inhibitory concentration (IC50) fell in the range of 0.1 to 1 µM.

For the compound `COc1ccncc1-c1cc(C2=CCCN(C(=O)CCn3ccnn3)C2)c(F)c2[nH]c(C(=O)N3CCN(c4nc(C)ccc4OC)CC3)cc12` [Example I-433], the IC50 was above 100 µM.

With `COc1cccnc1N1CCN(C(=O)c2cc3ccc(C4=CCCN(C(=O)CCn5ccnn5)C4)c(F)c3[nH]2)CC1` [Example I-338], the IC50 is below 0.1 µM.

Regarding `CCOc1ccncc1-c1cc(C2=CCCN(C(=O)CCn3ccnn3)C2)c(F)c2[nH]c(C(=O)N3CCN(c4ccnnc4OC)CC3)cc12` [Example I-483], the IC50 was below 0.1 µM.

Regarding `COc1cc(F)cnc1N1CCN(C(=O)c2cc3c(C4CCN(C)CC4)cc(C4=CCCN(C(=O)CCn5ccnn5)C4)c(F)c3[nH]2)CC1` [Example I-725], the IC50 is below 0.1 µM.

As for `COc1ccccc1-c1cc(C2=CCCN(C(=O)CCn3ccnn3)C2)c(F)c2[nH]c(C(=O)N3CCN(c4ccsc4C#N)CC3)cc12` [Example I-776], the IC50 was below 0.1 µM.

On to `COc1ccncc1-c1cc(C2=CCCN(C(=O)CCn3ccnn3)C2)c(F)c2[nH]c(C(=O)N3CCN(c4ncc(C(F)(F)F)cc4OC)CC3)cc12` [Example I-445], for which the IC50 is below 0.1 µM.

With `COc1ccccc1-c1cc(C2=CCCN(C(=O)CCn3ccnn3)C2)c(F)c2[nH]c(C(=O)N3CCN(c4nccc(-c5cn(C)c6ccccc56)n4)CC3)cc12` [Example I-906], the IC50 is below 0.1 µM.

Consider `CN(C)C(=O)c1cc2ccc(C3=CCCN(C(=O)CCc4ccno4)C3)cc2[nH]1` [Example I-829], for which the IC50 lay in the range of 0.1 to 1 µM.

On to `COc1cc(N(C)C)ccc1-c1cc(C2=CCCN(C(=O)CCn3ccnn3)C2)c(F)c2[nH]c(C(=O)N3CCN(c4ccccc4OC)CC3)cc12` [Example I-610], for which the IC50 is below 0.1 µM.

Turning to `COc1ccccc1-c1cc(C2=CCCN(C(=O)CCn3ccnn3)C2)c(F)c2[nH]c(C(=O)N3CCN(C(C)(C)C)CC3)cc12` [Example I-773], the IC50 was below 0.1 µM.

For the compound `CCc1cc(C)ncc1-c1cc(C2=CCCN(C(=O)CCc3nccs3)C2)c(F)c2[nH]c(C(=O)N3CCN(c4ncc(F)cc4OC)CC3)cc12` [Example I-525], the IC50 was below 0.1 µM.

`COc1ccncc1-c1cc(C2=CCCN(C(=O)CCn3ccnn3)C2)c(F)c2[nH]c(C(=O)N3CCN(c4ccc(F)c(OC)n4)CC3)cc12` [Example I-444]: the IC50 was below 0.1 µM.

On to `COc1cc(F)cnc1N1CCN(C(=O)c2cc3c(-c4cccc5cnccc45)cc(C4=CCCN(C(=O)CCn5ccnn5)C4)c(F)c3[nH]2)CC1` [Example I-1119], for which the half-inhibitory concentration (IC50) is below 0.1 µM.

On to `COc1cc(F)ccc1-c1cc(C2=CCCN(C(=O)CCn3ccnn3)C2)c(F)c2[nH]c(C(=O)N3CCN(c4ccc(F)c(OC)n4)CC3)cc12` [Example I-1107], for which the IC50 lay within 0.1 to 1 µM.

As to `COc1cccnc1N1CCN(C(=O)c2cc3c(C4CCN(C)C4)cc(C4=CCCN(C(=O)CCn5ccnn5)C4)c(F)c3[nH]2)CC1` (centres unmarked) [Example I-585], the IC50 is below 0.1 µM.

For `COc1cc(F)cnc1N1CCN(C(=O)c2cc3c(-c4c(F)ccc5ccc(C)nc45)cc(C4=CCCN(C(=O)CCn5ccnn5)C4)c(F)c3[nH]2)CC1` [Example I-631], the IC50 is below 0.1 µM.

On to `COc1ccccc1-c1cc(C2=CCCN(C(=O)CCn3cccn3)C2)c(F)c2[nH]c(C(=O)N3CCN(c4ncc(F)cc4OC)CC3)cc12` [Example I-687], for which the 50% inhibitory concentration (IC50) was below 0.1 µM.

As to `COc1ccccc1-c1cc(C2=CCCN(C(=O)CCn3ccnn3)C2)c(F)c2[nH]c(C(=O)N3CCN(c4ccc(F)cc4OC)CC3)cc12` [Example I-431], the IC50 is below 0.1 µM.

In the case of `COc1cc(F)ccc1-c1cc(C2=CCCN(C(=O)CCn3ccnn3)C2)cc2[nH]c(C(=O)N(C)C)cc12` [Example I-1055], the IC50 was below 0.1 µM.

For the compound `COc1ccccc1-c1cc(C2=CCCN(C(=O)CCn3ccnn3)C2)c(F)c2[nH]c(C(=O)N3CCN(c4c(F)cccc4OC4CC4)CC3)cc12` [Example I-424], the IC50 is below 0.1 µM.

Turning to `COc1ccccc1-c1cc(C2=CCCN(C(=O)CCn3ccnn3)C2)c(F)c2[nH]c(C(=O)N3CCN(CC(=O)NC(C)C)CC3)cc12` [Example I-1200], the IC50 was below 0.1 µM.

For `CN(C)C(=O)c1cc2cc(C3=CCCN(C(=O)CCn4ccnn4)C3)cc(CN3CCCCC3)c2o1` [Example I-1178], the IC50 was 0.1 to 1 µM.

`COc1ccccc1-c1cc(C2=CCCN(C(=O)CCn3ccnn3)C2)c(F)c2[nH]c(C(=O)N3CCN(c4ccc(O)cc4)CC3)cc12` [Example I-867]: the IC50 was below 0.1 µM.

For the compound `CCOc1c(F)cccc1-c1cc(C2=CCCN(C(=O)CCn3ccnn3)C2)c(F)c2[nH]c(C(=O)N3CCN(c4ncc(F)cc4OC)CC3)cc12` [Example I-643], the IC50 is below 0.1 µM.

As for `COc1ccccc1-c1cc(C2=CCCN(C(=O)CCn3ccnn3)C2)c(F)c2[nH]c(C(=O)N3CCN(c4cccc(OC(F)F)n4)CC3)cc12` [Example I-927], the IC50 is 0.1 to 1 µM.

`COc1ccccc1-c1cc(C2=CCCN(C(=O)CCn3ccnn3)C2)c(F)c2[nH]c(C(=O)N3CCN(c4cc5cnn(C)c5cc4C)CC3)cc12` [Example I-925]: the IC50 was in the range of 0.1 to 1 µM.

Regarding `COc1cc(F)cnc1N1CCN(C(=O)c2cc3c(-c4ccc5c(c4)c(C4CC4)nn5C)cc(C4=CCCN(C(=O)CCn5ccnn5)C4)c(F)c3[nH]2)CC1` [Example I-622], the IC50 is below 0.1 µM.

Consider `CN(C)C(=O)c1cc2cc(C3=CCCN(C(=O)CCn4ccnn4)C3)cc(-c3ccc(C(F)(F)F)cc3O)c2o1` [Example I-1073], for which the IC50 was below 0.1 µM.

On to `COc1cc(F)cnc1N1CCN(C(=O)c2cc3c(-c4cccc(-c5cccnc5)c4)cc(C4=CCCN(C(=O)CCn5ccnn5)C4)c(F)c3[nH]2)CC1` [Example I-629], for which the IC50 was below 0.1 µM.

As for `CCOc1ccc(-c2cc(C3=CCCN(C(=O)CCn4ccnn4)C3)c(F)c3[nH]c(C(=O)N4CCN(c5ncc(F)cc5OC)CC4)cc23)c(OC)c1` [Example I-661], the IC50 was below 0.1 µM.

`COc1cc(F)cnc1N1CCN(C(=O)c2cc(-c3cccnc3OC)c3c(c2)cc(C2=CCCN(C(=O)CCn4ccnn4)C2)n3CC2CC2)CC1` [Example I-726]: the IC50 is below 0.1 µM.

`CC(C(=O)N1CCC=C(c2ccc3cc(C(=O)N(C)C)[nH]c3c2)C1)n1ccccc1=O` (centres unmarked) [Example I-825]: the IC50 was in the range of 0.1 to 1 µM.

As to `COc1ccccc1-c1cc(C2=CCCN(C(=O)CCn3ccnn3)C2)c(F)c2[nH]c(C(=O)N3CCN(c4cn(C)c(=O)n(C)c4=O)CC3)cc12` [Example I-949], the IC50 is below 0.1 µM.

For the compound `COc1cc(Cl)cnc1N1CCN(C(=O)c2cc3c(-c4cnc5ccccc5c4OC)cc(C4=CCCN(C(=O)CCn5ccnn5)C4)c(F)c3[nH]2)CC1` [Example I-1037], the 50% inhibitory concentration (IC50) lay within 0.1 to 1 µM.

Consider `CN(C)C(=O)c1cc2ccc(C3=CCCN(C(=O)C4Cc5ccccc5CN4C=O)C3)cc2[nH]1` (centres unmarked) [Example I-822], for which the IC50 was 0.1 to 1 µM.

On to `COc1ccccc1-c1cc(C2=CCCN(C(=O)CCn3ccnn3)C2)c(F)c2[nH]c(C(=O)N3CCN(c4nccc(C)c4OC)CC3)cc12` [Example I-415], for which the IC50 was below 0.1 µM.

As to `CCc1ccncc1-c1cc(C2=CCCN(C(=O)CCn3cccn3)C2)c(F)c2[nH]c(C(=O)N3CCN(c4ncc(OC)cc4OC)CC3)cc12` [Example I-683], the IC50 is below 0.1 µM.

Consider `COc1ccc(F)cc1-c1cc(C2=CCCN(C(=O)CCn3ccnn3)C2)c(F)c2[nH]c(C(=O)N3CCN(c4ccccc4OC)CC3)cc12` [Example I-566], for which the IC50 is below 0.1 µM.

As for `COc1ccccc1-c1cc(C2=CCCN(C(C)=O)C2)cc2[nH]c(C(=O)N(C)C)cc12` [Example I-1091], the IC50 fell in the range of 0.1 to 1 µM.

For `COc1cc(F)cnc1N1CCN(C(=O)c2cc3c(-c4ccc(-c5cccnc5)cc4)cc(C4=CCCN(C(=O)CCn5ccnn5)C4)c(F)c3[nH]2)CC1` [Example I-1152], the IC50 was below 0.1 µM.

With `COc1ccccc1-c1cc(C2=CCCN(C(=O)CCn3ccnn3)C2)c(F)c2[nH]c(C(=O)N3CCN(c4ccc5n[nH]cc5c4)CC3)cc12` [Example I-859], the IC50 was below 0.1 µM.

For `CCc1cc(C)ncc1-c1cc(C2=CCCN(C(=O)CCn3ccnn3)C2)c(F)c2[nH]c(C(=O)N3CCN(C4CC4)CC3)cc12` [Example I-536], the IC50 is below 0.1 µM.

Consider `Cc1[nH]nc2ccc(-c3cc(C4=CCCN(C(=O)CCn5ccnn5)C4)cc4cc(C(=O)N(C)C)oc34)cc12` [Example I-1075], for which the IC50 is below 0.1 µM.

With `CN(C)C(=O)c1cc2cc(C3=CCCN(C(=O)C4Cc5c(N)cccc5CN4C=O)C3)ccc2o1` (centres unmarked) [Example I-372], the IC50 lay in the range of 0.1 to 1 µM.

In the case of `Cc1c[nH]c2ncc(-c3cc(C4=CCCN(C(=O)CCn5ccnn5)C4)c(F)c4[nH]c(C(=O)N(C)C)cc34)cc12` [Example I-1101], the IC50 was below 0.1 µM.

With `CN(C)C(=O)c1cc2cc(C3=CCCN(C(=O)CCn4ccnn4)C3)cc(NCc3cccc4ncccc34)c2o1` [Example I-871], the IC50 is below 0.1 µM.

As for `COC(=O)c1cnn(-c2cc(C3=CCCN(C(=O)CCn4ccnn4)C3)cc3cc(C(=O)N(C)C)oc23)c1` [Example I-1049], the IC50 lay in the range of 0.1 to 1 µM.

For `CCOCc1cc(F)ccc1-c1cc(C2=CCCN(C(=O)CCn3ccnn3)C2)c(F)c2[nH]c(C(=O)N3CCN(c4ncc(F)cc4OC)CC3)cc12` [Example I-1125], the IC50 is below 0.1 µM.

On to `COc1cc(F)cnc1N1CCN(C(=O)c2cc3c(-c4cncc(OC(F)F)c4)cc(C4=CCCN(C(=O)CCn5ccnn5)C4)c(F)c3[nH]2)CC1` [Example I-651], for which the IC50 was below 0.1 µM.

On to `CCc1nc(C)ccc1-c1cc(C(=O)N2CCN(c3nc(C)c(F)cc3OC)CC2)cc2cc(C3=CCCN(C(=O)CCn4ccnn4)C3)n(CC3CC3)c12` [Example I-546], for which the IC50 was above 100 µM.

Take `C#CCOC1CCN(C(=O)c2cc3c(-c4ccccc4OC)cc(C4=CCCN(C(=O)CCn5ccnn5)C4)c(F)c3[nH]2)CC1` [Example I-1001]: the IC50 is below 0.1 µM.

As for `CCc1ccncc1-c1cc(C2=CCCN(C(C)=O)C2)c(F)c2[nH]c(C(=O)N3CCN(c4ncccc4OC)CC3)cc12` [Example I-619], the IC50 was in the range of 0.1 to 1 µM.
